Columns and labels:
Assay in all cases: combination Emax (second highest fraction inhibited in the dose matrix, 72 h); higher = more inhibition; extreme values may be limits of the assay
[1] = tested on: OCI-AML5 (Acute Myeloid Leukemia)
How it was run: (§1)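 Bliss excess equals the observed combination effect minus the expected value EA + EB − EA·EB, where EA and EB are the effects of each agent alone. Combination Emax is the second-highest inhibition within the matrix. Inhibition was scaled from CellTiter-Glo 2.0 luminescence, with 0 set by vehicle wells and 1 by blank wells, after 72 hours of two-drug dosing of cells plated in 1536-well plates.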

[2] = tested on: SK-MM-2 (Plasma Cell Myeloma)
How it was run: as §1

[3] = tested on: LOUCY (T-Lymphoblastic Leukemia)
How it was run: as §1

[4] = tested on: NCI-H810 (Non-Small Cell Lung Carcinoma)
How it was run: as §1

[5] = tested on: SW684 (Other Solid Carcinomas)
How it was run: as §1

[6] = tested on: NCI-H1755 (Lung Adenocarcinoma)
How it was run: as §1

[7] = tested on: JHH-1 (Hepatocellular Carcinoma)
How it was run: as §1

RT4 (Bladder Carcinoma) = tested on: RT4 (Bladder Carcinoma)
How it was run: as §1

[8] = tested on: OV-90 (Ovarian Carcinoma)
How it was run: as §1

[9] = tested on: LAMA-84 (Chronic Myelogenous Leukemia)
How it was run: as §1

[10] = tested on: HSC-3 (Oral Cavity Carcinoma)
How it was run: as §1

[11] = tested on: Caov-3 (Ovarian Carcinoma)
How it was run: as §1

[12] = tested on: SJRH30 (Rhabdomyosarcoma)
How it was run: as §1

ES-2 (Ovarian Carcinoma) = tested on: ES-2 (Ovarian Carcinoma)
How it was run: as §1

[13] = tested on: Calu-6 (Non-Small Cell Lung Carcinoma)
How it was run: as §1

[14] = tested on: FLO-1 (Esophageal Adenocarcinoma)
How it was run: as §1

[15] = tested on: AsPC-1 (Pancreatic Carcinoma)
How it was run: as §1

[16] = tested on: HTC-C3 (Thyroid Gland Carcinoma)
How it was run: as §1

[17] = tested on: RPMI-8866 (Chronic Myelogenous Leukemia)
How it was run: as §1

786-0 (Kidney Carcinoma) = tested on: 786-0 (Kidney Carcinoma)
How it was run: as §1

Compound	combination Emax [1]	combination Emax [2]	combination Emax [3]	combination Emax [4]	combination Emax [5]	combination Emax [6]	combination Emax [7]	combination Emax (RT4 (Bladder Carcinoma))	combination Emax [8]	combination Emax [9]	combination Emax [10]	combination Emax [11]	combination Emax [12]	combination Emax (ES-2 (Ovarian Carcinoma))	combination Emax [13]	combination Emax [14]	combination Emax [15]	combination Emax [16]	combination Emax [17]	combination Emax (786-0 (Kidney Carcinoma))
CC(=O)Nc1cccc(-n2c(=O)n(C3CC3)c(=O)c3c(Nc4ccc(I)cc4F)n(C)c(=O)c(C)c32)c1 [Trametinib] + Cc1nc(-c2cn3c(n2)-c2ccc(-c4cnn(C(C)(C)C(N)=O)c4)cc2OCC3)n(C(C)C)n1 [Taselisib] (first compound max 1 µM, 7x7, partner max 10 µM)	1	0.43	0.527	0.121	0.929	0.978	1	0.734	0.834	1	0.986	0.836	0.947	0.725	0.987	0.665	0.608	0.744	0.71	0.613
Cc1cc2ncnn2cc1Nc1ncc2c(n1)n(C1CCOCC1)c(=O)n2C [AZD7648] + C=CCn1c(=O)c2cnc(Nc3ccc(N4CCN(C)CC4)cc3)nc2n1-c1cccc(C(C)(C)O)n1 [AZD1775] (first compound max 10 µM, partner max 1 µM)	0.947	0.573	1	0.881	0.32	0.77	0.433	0.446	0.409	0.953	0.311	0.727	0.833	0.661	0.779	0.802	0.314	0.383	0.971	0.595
CCN(CCO)CCCOc1ccc2c(Nc3cc(CC(=O)Nc4cccc(F)c4)[nH]n3)ncnc2c1 [AZD2811] + C[C@@H]1COCCN1C2=NC(=NC(=C2)C3(CC3)[S@](=N)(=O)C)C4=C5C=CNC5=NC=C4 [AZD6738] (first compound max 1 µM, 7x7, partner max 10 µM)	0.983	0.533	1	0.738	0.385	0.788	0.504	0.429	0.429	0.97	0.454	0.841	0.839	0.728	0.767	0.6	0.42	0.858	0.955	0.714
COc1cc2c(cc1OCCCCCOc1cc3c(cc1OC)C(=O)N1C=C(C)C[C@H]1C=N3)N=C[C@@H]1CC(C)=CN1C2=O [SG3199] + O=C(c1cc(Cc2n[nH]c(=O)c3ccccc23)ccc1F)N1CCN(C(=O)C2CC2)CC1 [Olaparib] (first compound max 0.001 µM, 7x7, partner max 10 µM)	0.182	0.137	0.12	0.131	0.0316	0.202	0.136	0.169	0.098	0.226	0.157	0.202	0.122	0.165	0.186	0.186	0.02	0.246	0.263	0.0509
COc1cccc(OCCCN)c1-c1cc(Nc2cnc(C#N)cn2)n[nH]1 [Prexasertib] + O=C(c1cc(Cc2n[nH]c(=O)c3ccccc23)ccc1F)N1CCN(C(=O)C2CC2)CC1 [Olaparib] (first compound max 1 µM, 7x7, partner max 10 µM)	0.991	0.656	1	0.896	0.43	0.907	0.582	0.237	0.558	0.973	0.719	0.855	0.868	0.788	0.698	0.677	0.332	0.751	1	0.869
